Assay results taken from US9938261B2, “Heterocyclic compounds and methods of use thereof” (AMBIT BIOSCIENCES CORPORATION, priority 2011, dated 2018).
Like-named read-outs stand apart in the source and are kept apart here.

Experiments:
FLT3 = molecular target: T1, FLT3 (Homo sapiens, UniProt P36888); assay: Competition binding assay, FLT3 Kd; details: competition binding
T1 construct: made in house
T1 sequence (P36888 27-993): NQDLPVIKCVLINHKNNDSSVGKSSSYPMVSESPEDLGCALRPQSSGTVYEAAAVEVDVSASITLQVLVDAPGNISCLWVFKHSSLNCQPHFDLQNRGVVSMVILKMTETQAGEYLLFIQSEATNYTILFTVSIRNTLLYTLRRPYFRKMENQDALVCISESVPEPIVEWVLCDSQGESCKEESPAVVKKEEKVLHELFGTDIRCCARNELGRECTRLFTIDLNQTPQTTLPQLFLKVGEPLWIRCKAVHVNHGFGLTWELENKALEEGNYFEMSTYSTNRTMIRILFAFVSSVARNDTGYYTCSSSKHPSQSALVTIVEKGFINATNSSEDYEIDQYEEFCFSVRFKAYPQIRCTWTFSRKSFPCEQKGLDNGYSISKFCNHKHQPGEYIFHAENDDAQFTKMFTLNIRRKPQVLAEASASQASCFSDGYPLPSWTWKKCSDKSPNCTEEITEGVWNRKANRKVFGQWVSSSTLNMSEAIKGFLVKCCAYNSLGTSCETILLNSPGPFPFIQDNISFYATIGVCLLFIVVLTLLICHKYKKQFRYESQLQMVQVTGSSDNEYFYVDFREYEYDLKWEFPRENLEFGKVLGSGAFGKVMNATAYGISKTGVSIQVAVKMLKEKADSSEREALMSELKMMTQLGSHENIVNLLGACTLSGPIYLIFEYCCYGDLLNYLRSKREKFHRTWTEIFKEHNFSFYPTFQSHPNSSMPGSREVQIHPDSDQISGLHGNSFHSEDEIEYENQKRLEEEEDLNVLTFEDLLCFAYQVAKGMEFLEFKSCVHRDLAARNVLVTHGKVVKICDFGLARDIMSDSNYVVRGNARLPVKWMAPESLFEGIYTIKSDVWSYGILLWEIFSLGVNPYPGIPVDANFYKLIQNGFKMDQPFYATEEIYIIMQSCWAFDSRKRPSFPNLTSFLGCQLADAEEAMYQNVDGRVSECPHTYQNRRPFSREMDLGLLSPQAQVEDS
Summary of the method: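 Kinases as T7-phage fusions or HEK-293-expressed DNA-tagged constructs competed against immobilized biotinylated ligand on streptavidin beads, 1 h at room temperature in binding buffer. Bound kinase eluted and quantified by qPCR; Kd from eleven-point threefold dilution series.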

M-NFS-60 cells = assay: M-NFS-60 cell proliferation assay (Alamar Blue); type: cell-based, mouse; details: M-NFS-60 cell proliferation, read-out: CSF1R M-NFS-60 CTB:IC50
Summary of the method: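 Mouse M-NFS-60 cells growing on 20 ng/mL M-CSF in RPMI/10% FBS were exposed to compounds (9 half-log concentrations, 0.5% DMSO) for 72 h at 37 °C. Viability read by Alamar Blue fluorescence (ex 560/em 590 nm, 3 h). IC50 = 50% proliferation inhibition versus control, mean of duplicates.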

SMILES	Kd (FLT3) [µM]	IC50 (M-NFS-60 cells; Mus musculus) [µM]	IC50 (M-NFS-60 cells) [µM]
O[C@@H]1CCCC[C@H]1Nc1nc2ccc(Cc3cnc4cc(-n5cncn5)ccn34)cc2s1 [Example 169, (1R,2R)-2-((6-((7-(1H-1,2,4-triazol-1-yl)imidazo[1,2-a]pyridin-3-yl)methyl)benzo[d]thiazol-2-yl)amino)cyclohexanol]	1 to 5	0.05 to 0.4	
O=C(c1ccn2c(Cc3ccc4nc(N[C@@H]5CCCC[C@H]5O)sc4c3)cnc2c1)N1CCCC1 [Example 223, (3-((2-(((1R,2R)-2-hydroxycyclohexyl)amino)benzo[d]thiazol-6-yl)methyl)imidazo[1,2-a]pyridin-7-yl)(pyrrolidin-1-yl)methanone]	1 to 5	0.05 to 0.4	
Cn1nnnc1-c1cnc2c(c1)ncn2Cc1ccc2nc(N[C@@H]3CCCC[C@H]3O)sc2c1 [Example 134, (1R,2R)-2-((6-((6-(1-methyl-1H-tetrazol-5-yl)-3H-imidazo[4,5-b]pyridin-3-yl)methyl)benzo[d]thiazol-2-yl)amino)cyclohexanol]	0.2 to 1	0.05 to 0.4	
OCCOc1ccc2c(c1)ncn2Cc1ccc2nc(N[C@@H]3CCCC[C@H]3O)sc2c1 [Example 172, (1R,2R)-2-((6-((5-(2-hydroxyethoxy)-1H-benzo[d]imidazol-1-yl)methyl)benzo[d]thiazol-2-yl)amino)cyclohexanol]	0.2 to 1	0.05 to 0.4	
O[C@@H]1CCCC[C@H]1Nc1nc2ccc(Cc3cnc4cc(-n5cccn5)ccn34)cc2s1 [Example 167, (1R,2R)-2-((6-((7-(1H-pyrazol-1-yl)imidazo[1,2-a]pyridin-3-yl)methyl)benzo[d]thiazol-2-yl)amino)cyclohexanol]	1 to 5	≤ 0.05	
Cn1nnc(-c2ccc3c(c2)ncn3Cc2ccc3nc(N[C@@H]4CCC[C@@H](O)[C@H]4O)sc3c2)n1 [Example 236, (1R,2S,3R)-3-((6-((5-(2-methyl-2H-tetrazol-5-yl)-1H-benzo[d]imidazol-1-yl)methyl)benzo[d]thiazol-2-yl)amino)cyclohexane-1,2-diol]	0.2 to 1	0.05 to 0.4	
O[C@@H]1CCCC[C@H]1Nc1nc2ccc(Cn3cnc4cc(OCCN5CCOCC5)ccc43)cc2s1 [Example 171, (1R,2R)-2-((6-((5-(2-morpholinoethoxy)-1H-benzo[d]imidazol-1-yl)methyl)benzo[d]thiazol-2-yl)amino)cyclohexanol]	0.2 to 1	0.05 to 0.4	
N#Cc1ccc2c(c1)ncn2Cc1ccc2nc(N[C@@H]3CCCC[C@H]3O)sc2c1 [Example 108, 1-((2-(((1R,2R)-2-hydroxycyclohexyl)amino)benzo[d]thiazol-6-yl)methyl)-1H-benzo[d]imidazole-5-carbonitrile]	> 5	0.05 to 0.4	
Cn1nnc(-c2ccc3c(c2)ncn3Cc2ccc3nc(N[C@@H]4CCCC[C@H]4O)sc3c2)n1 [Example 227, (1R,2R)-2-((6-((5-(2-methyl-2H-tetrazol-5-yl)-1H-benzo[d]imidazol-1-yl)methyl)benzo[d]thiazol-2-yl)amino)cyclohexanol]	1 to 5	≤ 0.05	
O[C@@H]1CCCC[C@H]1Nc1nc2ccc(Cn3cnc4cncnc43)cc2o1 [Example 118, (1R,2R)-2-((6-((9H-purin-9-yl)methyl)benzo[d]oxazol-2-yl)amino)cyclohexanol]	1 to 5	0.4 to 1.5	
CCOc1ccc2c(c1)ncn2Cc1ccc2nc(N[C@@H]3CCCC[C@H]3O)sc2c1 [Example 138, (1R,2R)-2-((6-((5-ethoxy-1H-benzo[d]imidazol-1-yl)methyl)benzo[d]thiazol-2-yl)amino)cyclohexanol]	0.2 to 1	≤ 0.05	
COc1ccc2c(c1)ncn2Cc1ccc2nc(N[C@@H]3CCCC[C@H]3O)oc2c1 [Example 151, (1R,2R)-2-((6-((5-methoxy-1H-benzo[d]imidazol-1-yl)methyl)benzo[d]oxazol-2-yl)amino)cyclohexanol]	0.2 to 1	0.05 to 0.4	
O=c1c(N2CCOCC2)nccn1Cc1ccc2nc(N[C@@H]3CCCC[C@H]3O)sc2c1 [Example 222, 1-((2-(((1R,2R)-2-hydroxycyclohexyl)amino)benzo[d]thiazol-6-yl)methyl)-3-morpholinopyrazin-2(1H)-one]	> 5	> 1.5	
O[C@H]1CCCC[C@H]1Nc1nc2ccc(Cn3cnc4cc(F)cnc43)cc2s1 [Example 162, (1S,2R)-2-((6-((6-fluoro-3H-imidazo[4,5-b]pyridin-3-yl)methyl)benzo[d]thiazol-2-yl)amino)cyclohexanol]	1 to 5		0.05 to 0.4
O[C@@H]1CCCC[C@H]1Nc1nc2cc(F)c(Cn3cnc4cccnc43)cc2s1 [Example 154, (1R,2R)-2-((6-((3H-imidazo[4,5-b]pyridin-3-yl)methyl)-5-fluorobenzo[d]thiazol-2-yl)amino)cyclohexanol]	1 to 5	0.05 to 0.4	
O[C@@H]1CCCC[C@H]1Nc1nc2ccc(Cn3cnc4cccnc43)c(F)c2s1 [Example 164, (1R,2R)-2-((6-((3H-imidazo[4,5-b]pyridin-3-yl)methyl)-7-fluorobenzo[d]thiazol-2-yl)amino)cyclohexanol]	1 to 5	0.4 to 1.5	
O[C@@H]1CCCC[C@H]1Nc1nc2ccc(Cn3cnc4cc(-n5cccn5)ccc43)cc2s1 [Example 160, (1R,2R)-2-((6-((5-(1H-pyrazol-1-yl)-1H-benzo[d]imidazol-1-yl)methyl)benzo[d]thiazol-2-yl)amino)cyclohexanol]	0.2 to 1	≤ 0.05	
N#Cc1cnc2c(c1)ncn2Cc1ccc2nc(N[C@@H]3CCCC[C@H]3O)oc2c1 [Example 124, 3-((2-(((1R,2R)-2-hydroxycyclohexyl)amino)benzo[d]oxazol-6-yl)methyl)-3H-imidazo[4,5-b]pyridine-6-carbonitrile]	0.2 to 1	0.05 to 0.4	
O[C@@H]1CCCC[C@H]1Nc1nc2ccc(Cn3cnc4cc(I)cnc43)cc2s1 [Example 146, (1R,2R)-2-((6-((6-iodo-3H-imidazo[4,5-b]pyridin-3-yl)methyl)benzo[d]thiazol-2-yl)amino)cyclohexanol]	0.2 to 1	0.05 to 0.4	
O[C@@H]1CCCC[C@H]1Nc1nc2ccc(Cn3cnc4cc(OC(F)(F)F)ccc43)cc2s1 [Example 149, (1R,2R)-2-((6-((5-(trifluoromethoxy)-1H-benzo[d]imidazol-1-yl)methyl)benzo[d]thiazol-2-yl)amino)cyclohexanol]	1 to 5	0.05 to 0.4	
OCc1ccc2ncc(Cc3ccc4nc(N[C@@H]5CCCC[C@H]5O)sc4c3)n2n1 [Example 144, (1R,2R)-2-((6-((6-(hydroxymethyl)imidazo[1,2-b]pyridazin-3-yl)methyl)benzo[d]thiazol-2-yl)amino)cyclohexanol]	0.2 to 1	0.05 to 0.4	
CS(=O)(=O)c1ccc2ncn(Cc3ccc4nc(N[C@@H]5CCCC[C@H]5O)sc4c3)c2c1 [Example 113, (1R,2R)-2-((6-((6-(methylsulfonyl)-1H-benzo[d]imidazol-1-yl)methyl)benzo[d]thiazol-2-yl)amino)cyclohexanol]	1 to 5	> 1.5	
N#Cc1ccc2ncc(Cc3ccc4nc(N[C@@H]5CCCC[C@H]5O)sc4c3)n2n1 [Example 221, 3-((2-(((1R,2R)-2-hydroxycyclohexyl)amino)benzo[d]thiazol-6-yl)methyl)imidazo[1,2-b]pyridazine-6-carbonitrile]	≤ 0.2	≤ 0.05	
CS(=O)(=O)c1ccc2c(c1)ncn2Cc1ccc2nc(N[C@@H]3CCCC[C@H]3O)sc2c1 [Example 112, (1R,2R)-2-((6-((5-(methylsulfonyl)-1H-benzo[d]imidazol-1-yl)methyl)benzo[d]thiazol-2-yl)amino)cyclohexanol]	1 to 5	> 1.5	
N#Cc1ccc2ncn(Cc3ccc4nc(N[C@@H]5CCCC[C@H]5O)sc4c3)c2c1 [Example 111, 1-((2-(((1R,2R)-2-hydroxycyclohexyl)amino)benzo[d]thiazol-6-yl)methyl)-1H-benzo[d]imidazole-6-carbonitrile]	1 to 5	0.05 to 0.4	
